The test system of one assay is prostate line LNCap. In words: In vitro cell culture growth assay (MTS), LNCap.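 Note: viable cell density read by absorbance at 490 nm, growth expressed as percent of vehicle-treated cells on the same plate.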 As to conditions: LNCap cells, three days after drug treatment. Format: cell-based, human.
The next assay concerns breast line MDA468. Kind of assay: In vitro cell culture growth assay (MTS), MDA468. The class given is cell-based, human. As to conditions: MDA468 cells, three days after drug treatment. Summed up:
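Three-day drug treatment starting 1 day post-plating; viable cells quantified via MTS metabolism (A490); effect normalised to in-plate vehicle controls as % growth.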

A further assay concerns the target PI3K (Homo sapiens, UniProt P42336). In words: Fluorescence polarization assay for PI3K.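 Note: PI3K kinase reaction on PIP2 with ATP, 30-60 min, product sensed by GST-GRP with red probe in fluorescence polarization (mP), controls without enzyme and at zero time.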 The class given is biochemical. Particulars: PI3Kα; read-out: PI3Kα IC50. A general note: In fluorescence polarisation assays a small probe gives low polarisation when free and higher when bound to something large.

pIC50: −log10 of the molar value.

PI3K, sequence (P42336 whole entry): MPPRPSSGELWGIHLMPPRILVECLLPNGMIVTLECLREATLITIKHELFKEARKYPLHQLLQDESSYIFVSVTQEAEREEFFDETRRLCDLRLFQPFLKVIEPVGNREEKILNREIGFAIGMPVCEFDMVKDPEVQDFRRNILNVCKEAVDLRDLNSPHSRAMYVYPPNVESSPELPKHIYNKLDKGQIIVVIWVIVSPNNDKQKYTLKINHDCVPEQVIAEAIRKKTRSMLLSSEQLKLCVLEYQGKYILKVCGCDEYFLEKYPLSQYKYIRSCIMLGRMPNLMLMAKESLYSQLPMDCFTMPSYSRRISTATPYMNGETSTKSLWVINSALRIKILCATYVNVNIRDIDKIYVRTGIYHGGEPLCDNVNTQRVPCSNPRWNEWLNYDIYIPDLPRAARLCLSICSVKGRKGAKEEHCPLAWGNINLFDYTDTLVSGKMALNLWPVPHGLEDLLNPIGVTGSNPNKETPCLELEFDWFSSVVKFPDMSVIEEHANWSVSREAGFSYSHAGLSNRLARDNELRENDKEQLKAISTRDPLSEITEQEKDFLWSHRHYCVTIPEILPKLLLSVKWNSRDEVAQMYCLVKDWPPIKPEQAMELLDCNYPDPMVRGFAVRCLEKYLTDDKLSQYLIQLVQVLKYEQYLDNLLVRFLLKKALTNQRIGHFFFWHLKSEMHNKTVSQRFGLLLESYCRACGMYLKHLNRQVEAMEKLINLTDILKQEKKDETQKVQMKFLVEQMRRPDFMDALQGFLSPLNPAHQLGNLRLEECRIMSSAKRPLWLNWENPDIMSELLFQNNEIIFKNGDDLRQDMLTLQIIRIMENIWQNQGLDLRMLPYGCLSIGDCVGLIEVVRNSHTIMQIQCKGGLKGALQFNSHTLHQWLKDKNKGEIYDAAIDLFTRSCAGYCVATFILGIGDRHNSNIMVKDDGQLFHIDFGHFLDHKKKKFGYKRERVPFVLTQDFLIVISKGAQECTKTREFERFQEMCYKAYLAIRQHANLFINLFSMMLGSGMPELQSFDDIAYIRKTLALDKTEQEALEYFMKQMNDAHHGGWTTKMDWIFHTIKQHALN
PI3K, sequence (P27986 whole entry partner): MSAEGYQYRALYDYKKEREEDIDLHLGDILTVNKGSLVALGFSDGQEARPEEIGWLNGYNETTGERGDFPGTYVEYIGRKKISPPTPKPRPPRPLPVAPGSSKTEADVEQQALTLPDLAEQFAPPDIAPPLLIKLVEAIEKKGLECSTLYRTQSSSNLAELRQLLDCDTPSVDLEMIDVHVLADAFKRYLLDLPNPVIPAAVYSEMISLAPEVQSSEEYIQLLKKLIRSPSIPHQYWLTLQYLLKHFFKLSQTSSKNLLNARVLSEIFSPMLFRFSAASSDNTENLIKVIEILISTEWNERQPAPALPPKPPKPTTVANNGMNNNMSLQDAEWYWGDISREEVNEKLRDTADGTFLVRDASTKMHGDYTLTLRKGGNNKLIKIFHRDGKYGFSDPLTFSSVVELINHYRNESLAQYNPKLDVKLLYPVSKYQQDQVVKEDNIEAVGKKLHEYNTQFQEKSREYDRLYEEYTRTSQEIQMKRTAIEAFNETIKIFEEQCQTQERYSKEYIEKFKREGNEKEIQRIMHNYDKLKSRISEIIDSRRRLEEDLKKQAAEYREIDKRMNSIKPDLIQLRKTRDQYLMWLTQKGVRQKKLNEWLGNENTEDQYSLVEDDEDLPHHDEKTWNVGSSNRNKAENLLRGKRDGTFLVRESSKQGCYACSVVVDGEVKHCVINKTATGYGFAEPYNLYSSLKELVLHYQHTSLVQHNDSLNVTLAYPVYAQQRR

The pIC50 is the negative decadic logarithm of the IC50, by convention in mol/L. For `CNC(=O)Nc1ccc(-c2nc(N3CCOCC3)c3cnn(C4CCN(C(=O)c5ccc(C)nc5)CC4)c3n2)cc1` [Compound 664, 1-methyl-3-[4-(1-{1-[(6-methylpyridin-3-yl)carbonyl]piperidin-4-yl}-4-morpholin-4-yl-1H-pyrazolo[3,4-d]pyrimidin-6-yl)phenyl]urea], the figures for the pIC50 in the assay with prostate line LNCap, in the assay on breast line MDA468 and at PI3K were 6.48, 6.57 and 6.93, respectively.
Take `CNC(=O)Nc1ccc(-c2nc(N3CCOCC3)c3cnn(C4CCN(C(=O)c5ccc(F)nc5)CC4)c3n2)cc1` [Compound 665, 1-[4-(1-{1-[(6-fluoropyridin-3-yl)carbonyl]piperidin-4-yl}-4-morpholin-4-yl-1H-pyrazolo[3,4-d]pyrimidin-6-yl)phenyl]-3-methylurea]: the values for the pIC50 in the assay on prostate line LNCap, in the assay on breast line MDA468 and on PI3K were 6.60, 6.57 and 7.00, respectively.
For the molecule `CNC(=O)Nc1ccc(-c2nc(N3CCOCC3)c3cnn(C4CCN(C(=O)c5cccc(C(C)=O)c5)CC4)c3n2)cc1` [Compound 667, 1-(4-{1-[1-(3-acetylbenzoyl)piperidin-4-yl]-4-morpholin-4-yl-1H-pyrazolo[3,4-d]pyrimidin-6-yl}phenyl)-3-methylurea], the pIC50 in the assay on prostate line LNCap was 6.96; in the assay on breast line MDA468, 6.82; on PI3K, 7.08.
Turning to `CNC(=O)Nc1ccc(-c2nc(N3CCOCC3)c3cnn(C4CCN(C(=O)c5ccc(Cl)nc5)CC4)c3n2)cc1` [Compound 668, 1-[4-(1-{1-[(6-chloropyridin-3-yl)carbonyl]piperidin-4-yl}-4-morpholin-4-yl-1H-pyrazolo[3,4-d]pyrimidin-6-yl)phenyl]-3-methylurea], the pIC50 in the assay with prostate line LNCap was 6.82; with breast line MDA468, 6.39; on PI3K it was 7.08.
For `CNC(=O)Nc1ccc(-c2nc(N3CCOCC3)c3cnn(C4CCN(C(=O)c5cccnc5Cl)CC4)c3n2)cc1` [Compound 669, 1-[4-(1-{1-[(2-chloropyridin-3-yl)carbonyl]piperidin-4-yl}-4-morpholin-4-yl-1H-pyrazolo[3,4-d]pyrimidin-6-yl)phenyl]-3-methylurea], the pIC50 in the assay on prostate line LNCap is 7.10; in the assay with breast line MDA468 it was 6.34; on PI3K, 7.00.
Take `CNC(=O)Nc1ccc(-c2nc(N3CCOCC3)c3cnn(C4CCN(Cc5ccc(F)cc5)CC4)c3n2)cc1` [Compound 671, 1-(4-{1-[1-(4-fluorobenzyl)piperidin-4-yl]-4-morpholin-4-yl-1H-pyrazolo[3,4-d]pyrimidin-6-yl}phenyl)-3-methylurea]: the figures for the pIC50 in the assay on prostate line LNCap, in the assay on breast line MDA468 and on PI3K were over 7.57, 6.68 and 7.47, respectively.
Take `CNC(=O)Nc1ccc(-c2nc(N3CCOCC3)c3cnn(C4CCN(Cc5cccc(F)c5)CC4)c3n2)cc1` [Compound 672, 1-(4-{1-[1-(3-fluorobenzyl)piperidin-4-yl]-4-morpholin-4-yl-1H-pyrazolo[3,4-d]pyrimidin-6-yl}phenyl)-3-methylurea]: the pIC50 is 7.57 in the assay with prostate line LNCap, 6.82 with breast line MDA468 and 7.52 on PI3K.
Turning to `CNC(=O)Nc1ccc(-c2nc(N3CCOCC3)c3cnn(C4CCN(Cc5ccccc5C)CC4)c3n2)cc1` [Compound 673, 1-methyl-3-(4-{1-[1-(2-methylbenzyl)piperidin-4-yl]-4-morpholin-4-yl-1H-pyrazolo[3,4-d]pyrimidin-6-yl}phenyl)urea], the pIC50 with prostate line LNCap was 7.40; in the assay on breast line MDA468, 6.74; at PI3K it was 7.30.
For `CNC(=O)Nc1ccc(-c2nc(N3CCOCC3)c3cnn(C4CCN(Cc5cccc(C)c5)CC4)c3n2)cc1` [Compound 674, 1-methyl-3-(4-{1-[1-(3-methylbenzyl)piperidin-4-yl]-4-morpholin-4-yl-1H-pyrazolo[3,4-d]pyrimidin-6-yl}phenyl)urea], the pIC50 in the assay on prostate line LNCap was 7.28; in the assay on breast line MDA468, 6.72; at PI3K it was 7.38.
For the molecule `CNC(=O)Nc1ccc(-c2nc(N3CCOCC3)c3cnn(C4CCN(Cc5ccc(C)cc5)CC4)c3n2)cc1` [Compound 675, 1-methyl-3-(4-{1-[1-(4-methylbenzyl)piperidin-4-yl]-4-morpholin-4-yl-1H-pyrazolo[3,4-d]pyrimidin-6-yl}phenyl)urea], the pIC50 with prostate line LNCap was over 7.57; in the assay on breast line MDA468, 6.96; at PI3K, 7.60.
The like results for `c1ccc(-n2ncc3c(N4CCOCC4)nc(-c4ccc5[nH]ncc5c4)nc32)cc1` [Compound 676, 6-(1H-indazol-5-yl)-4-morpholin-4-yl-1-phenyl-1H-pyrazolo[3,4-d]pyrimidine] were, in that order, 4.70, under 4.22 and 6.36.
For `O=C1Cc2cc(-c3nc(N4CCOCC4)c4cnn(-c5ccccc5)c4n3)ccc2N1` [Compound 677, 5-(4-morpholin-4-yl-1-phenyl-1H-pyrazolo[3,4-d]pyrimidin-6-yl)-1,3-dihydro-2H-indol-2-one], the pIC50 is under 4.22 with prostate line LNCap, under 4.22 with breast line MDA468 and 5.99 on PI3K.
As to `Nc1ccnc(-c2nc(N3CCOCC3)c3cnn(C4CCN(C(=O)c5cccnc5)CC4)c3n2)c1` [Compound 678, 2-{4-morpholin-4-yl-1-[1-(pyridin-3-ylcarbonyl)piperidin-4-yl]-1H-pyrazolo[3,4-d]pyrimidin-6-yl}pyridin-4-amine], the pIC50 in the assay on prostate line LNCap is 4.41; with breast line MDA468 it was under 4.22; at PI3K it was 5.18.
For `Nc1ccc(-c2nc(N3CCOCC3)c3cnn(C4CCN(C(=O)c5cccnc5)CC4)c3n2)nc1` [Compound 679, 6-{4-morpholin-4-yl-1-[1-(pyridin-3-ylcarbonyl)piperidin-4-yl]-1H-pyrazolo[3,4-d]pyrimidin-6-yl}pyridin-3-amine], the pIC50 was 4.35 in the assay with prostate line LNCap, under 4.22 in the assay with breast line MDA468 and 5.39 on PI3K.
On to `Nc1ccnc(-c2nc(N3CCOCC3)c3cnn(-c4ccccc4)c3n2)c1` [Compound 681, 2-(4-morpholin-4-yl-1-phenyl-1H-pyrazolo[3,4-d]pyrimidin-6-yl)pyridin-4-amine], for which the pIC50 in the assay with prostate line LNCap was under 4.22; in the assay on breast line MDA468 it was under 4.22; at PI3K, 5.84.
Consider `COC(=O)Nc1ccc(-c2nc(N3CCOCC3)c3cnn(C4CCN(C(=O)c5ccccn5)CC4)c3n2)cc1` [Compound 685, methyl (4-{4-morpholin-4-yl-1-[1-(pyridin-2-ylcarbonyl)piperidin-4-yl]-1H-pyrazolo[3,4-d]pyrimidin-6-yl}phenyl)carbamate], for which the pIC50 with prostate line LNCap was 6.70; in the assay on breast line MDA468, 6.24; at PI3K, 5.72.
With `COC(=O)Nc1ccc(-c2nc(N3CCOCC3)c3cnn(C4CCN(C(=O)c5ccccc5F)CC4)c3n2)cc1` [Compound 687, methyl (4-{1-[1-(2-fluorobenzoyl)piperidin-4-yl]-4-morpholin-4-yl-1H-pyrazolo[3,4-d]pyrimidin-6-yl}phenyl)carbamate], the pIC50 is 6.60 in the assay on prostate line LNCap, 6.32 with breast line MDA468 and 5.94 at PI3K.
The like results for `COC(=O)Nc1ccc(-c2nc(N3CCOCC3)c3cnn(C4CCN(C(=O)c5ccccc5Cl)CC4)c3n2)cc1` [Compound 688, methyl (4-{1-[1-(2-chlorobenzoyl)piperidin-4-yl]-4-morpholin-4-yl-1H-pyrazolo[3,4-d]pyrimidin-6-yl}phenyl)carbamate] were, in that order, 6.60, 6.12 and 6.11.
The like results for `COC(=O)Nc1ccc(-c2nc(N3CCOCC3)c3cnn(C4CCN(Cc5ccc(F)cc5)CC4)c3n2)cc1` [Compound 694, methyl (4-{1-[1-(4-fluorobenzyl)piperidin-4-yl]-4-morpholin-4-yl-1H-pyrazolo[3,4-d]pyrimidin-6-yl}phenyl)carbamate] were, in that order, 5.92, 5.59 and 6.12.
The matching figures for `COC(=O)Nc1ccc(-c2nc(N3CCOCC3)c3cnn(C4CCN(Cc5ccc(Cl)cc5)CC4)c3n2)cc1` [Compound 695, methyl (4-{1-[1-(4-chlorobenzyl)piperidin-4-yl]-4-morpholin-4-yl-1H-pyrazolo[3,4-d]pyrimidin-6-yl}phenyl)carbamate]: 5.70, 5.05 and 6.41.
For `CNC(=O)Nc1ccc(-c2nc(N3CCOCC3)c3cnn(C4CCN(CC(F)(F)F)CC4)c3n2)cc1` [Compound 714, 1-methyl-3-(4-{4-morpholin-4-yl-1-[1-(2,2,2-trifluoroethyl)piperidin-4-yl]-1H-pyrazolo[3,4-d]pyrimidin-6-yl}phenyl)urea], the results for the pIC50 in the assay on prostate line LNCap, in the assay with breast line MDA468 and on PI3K were 7.25, 6.49 and 6.73, respectively.
Turning to `CNC(=O)Nc1ccc(-c2nc(N3CCOCC3)c3cnn(C4CCN(C(C)=O)CC4)c3n2)cc1` [Compound 716, 1-{4-[1-(1-acetylpiperidin-4-yl)-4-morpholin-4-yl-1H-pyrazolo[3,4-d]pyrimidin-6-yl]phenyl}-3-methylurea], the results for the pIC50 with prostate line LNCap, with breast line MDA468 and at PI3K were 6.10, 5.92 and 6.65, respectively.
On to `CNC(=O)Nc1ccc(-c2nc(N3CCOCC3)c3cnn(C4CCN(C(=O)N(C)C)CC4)c3n2)cc1` [Compound 717, N,N-dimethyl-4-(6-{4-[(methylcarbamoyl)amino]phenyl}-4-morpholin-4-yl-1H-pyrazolo[3,4-d]pyrimidin-1-yl)piperidine-1-carboxamide], for which the pIC50 in the assay with prostate line LNCap is 6.70; with breast line MDA468, 6.32; on PI3K, 6.68.
As for `CNC(=O)Nc1ccc(-c2nc(N3CCOCC3)c3cnn(C4CCN(C(=O)C(C)C)CC4)c3n2)cc1` [Compound 719, 1-{4-[1-(1-isobutyrylpiperidin-4-yl)-4-morpholin-4-yl-1H-pyrazolo[3,4-d]pyrimidin-6-yl]phenyl}-3-methylurea], the pIC50 with prostate line LNCap is 6.82; with breast line MDA468, 6.60; at PI3K, 6.83.

The values above are taken from patent publication US20080234262A1 (Wyeth, priority 2007, published 2008).
